In test [1] the target is T1, Top1-DNA cleavage complexes (Top1cc) (Homo sapiens, UniProt P11387).
T1 construct: made in house; host or cells: Sf-9 insect cells (recombinant baculovirus, gift of Prof. James J. Champoux)
T1 sequence (P11387 1-765): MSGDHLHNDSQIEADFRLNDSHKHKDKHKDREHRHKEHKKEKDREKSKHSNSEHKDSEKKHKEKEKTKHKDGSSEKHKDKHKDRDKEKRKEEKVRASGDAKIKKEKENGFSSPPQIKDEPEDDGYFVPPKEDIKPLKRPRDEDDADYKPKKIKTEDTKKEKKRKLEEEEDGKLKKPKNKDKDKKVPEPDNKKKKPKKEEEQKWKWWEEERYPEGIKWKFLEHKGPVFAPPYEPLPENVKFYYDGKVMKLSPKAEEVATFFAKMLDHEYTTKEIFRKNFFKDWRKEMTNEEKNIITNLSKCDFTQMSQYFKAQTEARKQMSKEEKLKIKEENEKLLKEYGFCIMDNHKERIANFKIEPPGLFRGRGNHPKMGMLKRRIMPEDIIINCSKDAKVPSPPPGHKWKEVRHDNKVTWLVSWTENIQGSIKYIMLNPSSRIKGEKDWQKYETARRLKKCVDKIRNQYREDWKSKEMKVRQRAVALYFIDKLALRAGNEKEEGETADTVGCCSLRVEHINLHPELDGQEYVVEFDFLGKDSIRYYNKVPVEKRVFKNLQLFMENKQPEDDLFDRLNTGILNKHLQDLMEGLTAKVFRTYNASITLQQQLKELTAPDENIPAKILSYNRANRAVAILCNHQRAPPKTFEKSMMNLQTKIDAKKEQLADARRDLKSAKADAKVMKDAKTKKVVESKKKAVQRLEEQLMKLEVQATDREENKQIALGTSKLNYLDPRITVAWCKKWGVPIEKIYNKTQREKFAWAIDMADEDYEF
Put plainly: Plasmid DNA cleavage assay (Top1cc formation). Format: biochemical. As for the experimental part: Because camptothecin (CPT) stabilizes Top1-DNA cleavable complexes (Top1cc) to inhibit Top1 activity,[3],[5],[37] we investigated compound 8 induced Top1cc formation with the plasmid DNA cleavage assays.[6],[8],[36],[37] Top1 mediated conversion of closed circular DNA (form I) to nicked circular DNA (form II) in the presence of specific inhibitors is referred to as “cleavable complex”. […] To further investigate the impact of compound 8 on preformed Top1cc, we preincubated Top1 with plasmid DNA and CPT (Figure 2B) before the addition of compound 8 in the cleavage assays.
Plasmid DNA cleavage assay was carried out as described previously.[6],[8] For equilibrium cleavage assays, 25-mer duplex of oligonucleotide containing a Top1 binding motif was labeled and annealed as described previously.[13],[36],[38] Samples were analyzed by 12% sequencing gel electrophoresis, dried, and exposed on PhosphorImager screens and imaged with Typhoon FLA 7000 (GE Healthcare, U.K.).

The test system of test [2] is PARP1 cleavage in MCF7 cells. Briefly: Western blot of PARP1 cleavage in treated MCF7 cells. Format: cell-based, human. The following applies: 10 μM, 12 h. Here is the method: Preparation of whole cell extracts from MCF7 cells and immunoblotting were carried out as described.[6],[40],[41] Immunoreactivity was detected using ECL chemiluminescence reaction (Amersham) under ChemiDoc MP system (Bio-Rad, USA).

The target in test [3] is T2, recombinant Top1 (Homo sapiens, UniProt P11387).
T2 construct: made in house; host or cells: Sf-9 insect cells (recombinant baculovirus, gift of Prof. James J. Champoux)
T2 sequence (P11387 1-765): T1 sequence (P11387 1-765)
Briefly: Dilution assay with recombinant Top1 (reversibility of inhibition). In kind it is biochemical. The text has this: To further investigate the nature of binding of compound 8 with Top1 (reversible vs irreversible),[12],[14] we performed dilution assay with recombinant Top1.

Test [4] has as its target T3, Top1cc in MCF7 cells (Homo sapiens, UniProt P11387).
T3 construct: endogenous in cells; host or cells: MCF7 cells
T3 sequence (P11387 2-765 limits assumed): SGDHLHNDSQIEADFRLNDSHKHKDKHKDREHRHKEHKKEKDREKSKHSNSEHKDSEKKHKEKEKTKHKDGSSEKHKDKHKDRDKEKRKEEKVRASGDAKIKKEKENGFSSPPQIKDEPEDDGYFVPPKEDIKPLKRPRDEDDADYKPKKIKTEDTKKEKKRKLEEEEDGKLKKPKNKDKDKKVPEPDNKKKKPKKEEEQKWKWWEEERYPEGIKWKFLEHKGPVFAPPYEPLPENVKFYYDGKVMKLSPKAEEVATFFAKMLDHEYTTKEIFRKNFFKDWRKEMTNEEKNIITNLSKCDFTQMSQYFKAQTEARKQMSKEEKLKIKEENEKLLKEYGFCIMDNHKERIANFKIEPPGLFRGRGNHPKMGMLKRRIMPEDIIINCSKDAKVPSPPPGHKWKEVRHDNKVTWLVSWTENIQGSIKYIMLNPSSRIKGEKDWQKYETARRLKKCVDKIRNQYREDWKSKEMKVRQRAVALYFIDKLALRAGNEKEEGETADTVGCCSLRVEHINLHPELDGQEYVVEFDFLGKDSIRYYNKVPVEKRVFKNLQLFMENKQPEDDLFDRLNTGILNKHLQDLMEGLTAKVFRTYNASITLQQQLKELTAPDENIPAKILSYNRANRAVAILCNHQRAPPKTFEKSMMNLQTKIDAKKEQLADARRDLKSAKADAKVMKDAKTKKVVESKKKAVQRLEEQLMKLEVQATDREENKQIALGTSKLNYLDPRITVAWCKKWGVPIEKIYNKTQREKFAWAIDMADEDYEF
Put plainly: Immuno complex of enzyme (ICE) bioassay. In kind it is cell-based. Here is the method:
Because compound 8 stimulates apoptosis (Figure 4C and Figure 5B), we examined accumulation of apoptotic Top1-DNA complexes in compound 8 treated cells (Figure 4D) by ICE bioassays.[15],[16] Top1cc related to apoptosis is due to secondary DNA modifications and is independent from direct Top1-drug interaction.[15]−[17] […] Therefore, proteasome mediated degradation of Top1 triggers compound 8 induced apoptosis without stabilizing apoptotic Top1-DNA covalent complexes. […] Genomic DNA was prepared and was briefly sonicated. Varying concentrations of DNA were spotted onto nitrocellulose membrane (Millipore, USA) using a slot-blot vacuum system (Biorad, USA). Immunoblotting was carried out with antihuman Top1 antibodies as described.[41]

SMILES strings stand for the structures.

For the compound `CN(C)c1ccc(-c2c3nc(c(-c4ccc(N(C)C)cc4)c4ccc([nH]4)c(-c4ccc(C(=O)O)cc4)c4nc(c(-c5ccc(C(=O)O)cc5)c5ccc2[nH]5)C=C4)C=C3)cc1` [Compound 8, 5,10-Bis(4-carboxyphenyl)-15,20-bis(4-dimethylaminophenyl)porphyrin], the “Effect on CPT-induced preformed Top1cc in plasmid DNA cleavage assay” value in test [1] (Top1 preincubated with plasmid DNA and CPT before addition of compound, dose dependent) was “completely abrogated CPT-induced Top1cc”. For the same compound, the “Stabilization of Top1cc in plasmid DNA cleavage assay” value in test [1] (recombinant human Top1 100 fmol, pBS (SK+) DNA, 37 °C, 30 min) is recorded as “failed to stabilize Top1cc”. In addition, the PARP cleavage result in test [2] is recorded as “promotes PARP cleavage”. Besides, the inhibition at 1 µM in test [3] (Top1 preincubated with 1 μM compound, read-out: Inhibition of enzyme before dilution) fell in the range of 90 to 99%. Besides, in test [3] (at 40-fold dilution (final 0.025 μM)), the “Relief of Top1 inhibition upon dilution” value was “Complete relief of Top1 inhibition”. Also, the “Top1 in DNA-containing fractions (apoptotic Top1cc)” value in test [4] (20 μM, 12 h) was “absence of Top1 in the DNA-containing fractions”. Also, the “Effect on CPT-induced cellular Top1-DNA complexes” value in test [4] (CPT 10 μM 6 h before addition of compound 8 20 μM for 6 h) is on record as “abrogates CPT-induced cellular Top1-DNA complexes”.

(Values after paper PMC5808360, “Neutral Porphyrin Derivative Exerts Anticancer Activity by Targeting Cellular Topoisomerase I (Top1) and Promotes Apoptotic Cell Death without Stabilizing Top1-DNA Cleavage Complexes” (Journal of Medicinal Chemistry, 2017).)
